Results reported in PMC10762035, “Molecular basis of human trace amine-associated receptor 1 activation” (Nature Communications, 2024).
Values joined by “and” are separate entries in the source; they are usually repeats but may differ in a detail not shown here. Equal entries are not always repeated. Structures can show the parent of a compound that is named as a salt.

What was measured:
[1] = target: T1, hTA1 (Homo sapiens, UniProt Q96RJ0); experiment: Screen of 89 aminergic compounds at 10 µM, cAMP accumulation in HEK293T cells; type: cell-based; conditions: quadruplicate values; screen at 10 µM;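 note: HEK293T cells co-transfected with hTA1 and GloSensor cAMP reporter, cAMP accumulation detected by luminescence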
T1 construct: expressed in transfected cells; host or cells: HEK293T
T1 sequence (Q96RJ0 1-339): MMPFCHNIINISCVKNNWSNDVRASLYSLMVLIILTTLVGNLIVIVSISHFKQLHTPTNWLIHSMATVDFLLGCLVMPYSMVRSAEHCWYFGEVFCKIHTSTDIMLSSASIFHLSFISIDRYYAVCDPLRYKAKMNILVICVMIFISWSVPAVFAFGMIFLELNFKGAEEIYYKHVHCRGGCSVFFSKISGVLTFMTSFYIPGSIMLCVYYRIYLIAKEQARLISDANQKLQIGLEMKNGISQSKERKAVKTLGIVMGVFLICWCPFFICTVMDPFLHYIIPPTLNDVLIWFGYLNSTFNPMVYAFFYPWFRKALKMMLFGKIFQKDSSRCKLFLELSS

[2] = target: T1, hTA1; experiment: GloSensor cAMP accumulation assay, concentration response, wild-type hTA1 in transfected HEK293T cells; type: cell-based; conditions: log[Compound], replicate wells;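 note: luminescence read after 30 min compound exposure at room temperature in cells preloaded with D-Luciferin, reflecting Gs-driven cAMP rise, efficacy scaled to the maximal β-PEA response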

CNc1ccc2c(CCN)cc(=O)oc2c1 [FFN206]
Luminescence for Screening Data [1]: 12.7 and 12.5 and 12.8

C#CCN(C)Cc1ccccc1 [Pargyline hydrochloride]
Luminescence for Screening Data [1]: 8.3 and 10.1 and 8.8 and 8.5

CNc1cc(OC)c(C(=O)NC2CCN(Cc3ccccc3)C2C)cc1Cl (centres unmarked) [Nemonapride]
Luminescence for Screening Data [1]: 5.7 and 7.5 and 7.3 and 6.6

CCN(CC)C(=O)/C(C#N)=C/c1cc(O)c(O)c([N+](=O)[O-])c1 [Entacapone]
Luminescence for Screening Data [1]: 5.5 and 5.2 and 6.2 and 5.6

CN1CCN(c2cccc3c(S(=O)(=O)c4ccccc4)c[nH]c23)CC1 [Ro4368554]
Luminescence for Screening Data [1]: 5.1 and 6 and 4.2 and 4.8

O=c1[nH]c2ccccc2n1C1CCN(CCCC(c2ccc(F)cc2)c2ccc(F)cc2)CC1 [pimozide]
Luminescence for Screening Data [1]: 4.4 and 4.3 and 5

Cc1nc2n(c(=O)c1CCN1CCC(c3noc4cc(F)ccc34)CC1)CCCC2 [Risperidone]
Luminescence for Screening Data [1]: 6.7 and 6 and 6.8 and 7

O=C(CCCN1CCC(O)(c2ccc(Cl)cc2)CC1)c1ccc(F)cc1 [Haloperidol]
Luminescence for Screening Data [1]: 7.4 and 8.8 and 6.8 and 6.9

Cl.O=C1Nc2ccc(Cl)c3c2C1(CCCCN1CC=C(c2ccc(Cl)cc2)CC1)CCC3 (centres unmarked) [DR4485 hydrochloride]
Luminescence for Screening Data [1]: 5.6 and 5.7 and 6.4 and 4.9

Fc1ccc(C(OCCN2CCN(CCCc3ccccc3)CC2)c2ccc(F)cc2)cc1 [GBR12909]
Luminescence for Screening Data [1]: 4.8 and 5.2 and 6.6 and 6.2

CCN1CCCC1CNC(=O)c1cc(S(=O)(=O)CC)c(N)cc1OC (centres unmarked) [Amisulpride]
Luminescence for Screening Data [1]: 8 and 6.7 and 8.1 and 7

CNCCCN1c2ccccc2CCc2ccccc21 [Desipramine]
Luminescence for Screening Data [1]: 6 and 6.2 and 5.6 and 6.1

COc1cc(N)c(Cl)cc1C(=O)CCC1CCN(CCNS(C)(=O)=O)CC1.Cl [RS 67506 hydrochloride]
Luminescence for Screening Data [1]: 5.6 and 9 and 4.8 and 5.5

O=C1CCc2ccc(OCCCCN3CCN(c4cccc(Cl)c4Cl)CC3)cc2N1 [Aripiprazole]
Luminescence for Screening Data [1]: 3.9 and 3.4 and 5.3 and 4.7

NCCc1ccccc1 [bPEA]
Normalized Luminescence Counts for WT hTA1 ([2]; M = -5): 114.55 and 104.58 and 118.623 and 102.53 and 95.7683 and 107.085 | Normalized Luminescence Counts for WT hTA1 ([2]; M = -5.522): 96.3904 and 87.8446 and 97.5922 and 98.0692 and 90.9789 and 92.0588 | Normalized Luminescence Counts for WT hTA1 ([2]; M = -6): 88.2006 and 75.1148 and 94.0536 and 103.14 and 88.8658 and 89.805 | Normalized Luminescence Counts for WT hTA1 ([2]; M = -6.522): 73.7573 and 64.299 and 91.1383 and 74.7791 and 68.7219 and 73.7461 | Normalized Luminescence Counts for WT hTA1 ([2]; M = -7): 70.4636 and 45.5827 and 61.4726 and 66.5619 and 44.258 and 53.6961 | Normalized Luminescence Counts for WT hTA1 ([2]; M = -7.522): 36.1467 and 21.3027 and 35.9464 and 26.7905 and 17.9158 and 22.3766 | Normalized Luminescence Counts for WT hTA1 ([2]; M = -8): 22.727 and 16.7405 and 21.3472 and 13.3611 and 11.9525 and 11.6238 | Normalized Luminescence Counts for WT hTA1 ([2]; M = -8.522): 4.5 and 4.523 and 5.969 and 4.393 and 2.514 and 2.6083 | Normalized Luminescence Counts for WT hTA1 ([2]; M = -9): 1.986 and 1.318 and 1.8743 and 1.716 and 1.012 and 1.106 | Normalized Luminescence Counts for WT hTA1 ([2]; M = -9.522): -1.063 and -1.33 and -0.4402 and -0.06817 and 0.1666 and -0.4908 | Normalized Luminescence Counts for WT hTA1 ([2]; M = -10): -0.596 and -1.264 and -0.5515 and -0.4438 and -0.7725 and -0.6786 | Normalized Luminescence Counts for WT hTA1 ([2]; M = -10.522): -1.3749 and -1.931 and -0.6405 and 0.0727 and -0.5847 and -1.101 | Normalized Luminescence Counts for WT hTA1 ([2]; M = -11): -0.1286 and -1.241 and 0.2497 and 0.6362 and -0.3499 and -0.7725 | Normalized Luminescence Counts for WT hTA1 ([2]; M = -11.522): -0.01735 and -1.575 and -0.7963 and 0.5892 and -0.3969 and -0.256 | Normalized Luminescence Counts for WT hTA1 ([2]; M = -12): -1.353 and -1.3749 and -1.286 and 0.02574 and -0.4908 and -0.3029 | Normalized Luminescence Counts for WT hTA1 ([2]; M = -12.522): -1.152 and -1.664 and -0.9075 and 0.5892 (2×) and 0.4483

CC[C@@H](CO)NC(=O)[C@@H]1C=C2c3cccc4[nH]cc(c34)C[C@H]2N(C)C1 [Methylergonovine]
Normalized Luminescence Counts for WT hTA1 ([2]; M = -5): 45.3336 and 42.9514 and 53.7117 and 43.7792 and 37.0624 and 36.5834 | Normalized Luminescence Counts for WT hTA1 ([2]; M = -5.522): 17.8708 and 18.4864 and 21.6449 and 29.4218 and 29.3534 and 29.1139 | Normalized Luminescence Counts for WT hTA1 ([2]; M = -6): 12.9992 and 11.3664 and 9.546 and 15.3039 and 15.0416 and 13.8556 | Normalized Luminescence Counts for WT hTA1 ([2]; M = -6.522): 6.093 and 6.147 and 6.254 and 7.082 and 6.8879 and 7.207 | Normalized Luminescence Counts for WT hTA1 ([2]; M = -7): 4.514 and 3.604 and 5.103 and 3.125 and 3.353 and 3.387 | Normalized Luminescence Counts for WT hTA1 ([2]; M = -7.522): 2.5066 and 3.845 and 3.203 and 2.03 and 1.87 and 2.201 | Normalized Luminescence Counts for WT hTA1 ([2]; M = -8): 2.5869 and 2.4263 and 1.489 and 1.2088 and 1.368 and 1.722 | Normalized Luminescence Counts for WT hTA1 ([2]; M = -8.522): 1.65 and 1.864 and 0.9274 and 1.414 and 1.14 and 1.916 | Normalized Luminescence Counts for WT hTA1 ([2]; M = -9): 0.3385 and 0.4991 and -0.009489 and 1.152 and 1.026 and 0.8895 | Normalized Luminescence Counts for WT hTA1 ([2]; M = -9.522): -0.06302 and -0.3842 and -0.8125 and 0.7184 and 0.4676 and 0.4447 | Normalized Luminescence Counts for WT hTA1 ([2]; M = -10): -0.08979 and -0.3039 and -0.2504 and 0.2509 and 0.1026 and 0.2167 | Normalized Luminescence Counts for WT hTA1 ([2]; M = -10.522): -0.3039 and -0.4645 and -0.2236 and 0.05702 and 0.03421 and -0.1026 | Normalized Luminescence Counts for WT hTA1 ([2]; M = -11): 0.09758 and -0.2772 and 0.4723 and 0.1825 and -0.1939 and 0 | Normalized Luminescence Counts for WT hTA1 ([2]; M = -11.522): 0.4188 and 0.74 and 0.6597 and 0.2395 and 0.7298 and 0.3877 | Normalized Luminescence Counts for WT hTA1 ([2]; M = -12): 0.5794 and 0.8471 and 0.74 and 0.3079 and 0.2281 and 0.479 | Normalized Luminescence Counts for WT hTA1 ([2]; M = -12.522): -0.4378 and 0.6865 and 0.7668 and 0.6272 and 0.479 and 0.1026

NCCc1c[nH]c2ccc(O)cc12 [5HT]
Normalized Luminescence Counts for WT hTA1 ([2]; M = -5): 22.7551 and 23.5409 and 27.4699 and 21.1146 and 16.9666 and 15.5049 | Normalized Luminescence Counts for WT hTA1 ([2]; M = -5.522): 12.7034 and 13.2601 and 13.0636 and 11.1989 and 10.4878 and 9.8162 | Normalized Luminescence Counts for WT hTA1 ([2]; M = -6): 16.6652 and 17.3528 and 14.4388 and 9.54 and 6.932 and 6.5768 | Normalized Luminescence Counts for WT hTA1 ([2]; M = -6.522): 9.953 and 14.2096 and 13.2928 and 9.698 and 6.261 and 7.564 | Normalized Luminescence Counts for WT hTA1 ([2]; M = -7): 9.7567 and 9.593 and 11.8194 and 6.3 and 5.55 and 6.814 | Normalized Luminescence Counts for WT hTA1 ([2]; M = -7.522): 9.298 and 11.492 and 8.12 and 4.167 and 4.444 and 4.799 | Normalized Luminescence Counts for WT hTA1 ([2]; M = -8): 9.298 and 7.236 and 9.822 and 3.732 and 3.653 and 4.048 | Normalized Luminescence Counts for WT hTA1 ([2]; M = -8.522): 4.387 and 5.369 and 8.578 and 1.7177 and 3.258 and 2.5868 | Normalized Luminescence Counts for WT hTA1 ([2]; M = -9): 3.339 and 1.604 and 3.176 and 2.073 and 0.9671 and 0.7301 | Normalized Luminescence Counts for WT hTA1 ([2]; M = -9.522): 0.589 and 1.473 and 1.408 and 0.01898 and -0.2575 and -0.4946 | Normalized Luminescence Counts for WT hTA1 ([2]; M = -10): 1.702 and 0.2289 and 0.1307 and -0.9291 and -0.09953 and -0.2971 | Normalized Luminescence Counts for WT hTA1 ([2]; M = -10.522): 0.6218 and 0.8182 and -0.295 and -1.285 and -0.7316 and -1.364 | Normalized Luminescence Counts for WT hTA1 ([2]; M = -11): -0.2622 (2×) and -0.5897 and 0.335 and 0.177 and -0.02052 | Normalized Luminescence Counts for WT hTA1 ([2]; M = -11.522): 0.06517 and 0.3926 and -0.09854 and -0.1785 (2×) and 0.09799 | Normalized Luminescence Counts for WT hTA1 ([2]; M = -12): 0.1307 and 0.5563 and -0.6551 and -0.6131 and 0.256 and 0.2955 | Normalized Luminescence Counts for WT hTA1 ([2]; M = -12.522): -0.2295 and 0.1307 and -0.1313 and 0.6906 and 0.8486 and -0.6921
